The structures appear in SMILES notation.

Test [1] relates to MOLM-13 tumor xenograft. Details: method as in PMID 22187040. The note with it: 25 mg/kg, same MOLM-13 model; cited from earlier work.
Test [2] concerns MV4;11 cells. The experiment in a line: Apoptosis assay, Annexin V-FITC/PI flow cytometry. The format is cell-based, human. The following applies: MV4;11 (FLT3-ITD-expressing cells), 300 nM, 48 hours. The method, then:
(§1) The number of apoptotic cells was determined by fluorescence-activated cell sorting (FACS) analyses using Annexin V-FITC staining. In brief, cells were centrifuged after drug treatment and resuspended in 1× binding buffer containing 2.5 mM of calcium (Ca2+). Cells were incubated with Annexin V-FITC (Biolegend, San Diego, CA) and propidium iodide (PI) (Sigma–Aldrich, St. Louis, MO) in the dark at room temperature for 20 minutes. Next, samples were reconstituted with 1× binding buffer and subjected to flow cytometry FACS Calibus (BD Bioscience, Franklin Lakes, NJ) to analyze the Annexin V-positive population using CellQuest Pro (BD Bioscience) and FlowJo (Treestar, Inc., San Carlos, CA).
(§2) Some histone deacetylase inhibitors (HDACi) will enhance the cytotoxic activity of FLT3 inhibitor on FLT3-ITD^+ cell via degradation of FLT3-ITD and STAT5 [24], [26], [36], [37]. […]
(§3) Figure 4 The effect of BPR1J-340 and SAHA versus drug combination on AML FLT3-ITD+ cells. […] (A) Viable cells were counted after staining with trypan blue dye at indicated time point (B) At 48-hours after treatment, cells were stained with FITC-labeled annexin V and propidium iodide and percentages of apoptotic cells were analyzed by flow cytometry. […]

Test [3] concerns MOLM-13 cells. Kind of test: Apoptosis assay, Annexin V-FITC/PI flow cytometry. The class given is cell-based, human. The note with it: MOLM-13 (FLT3-ITD-expressing cells), 300 nM, 48 hours. The method, then:
as §1, §2, §3
For orientation: A flow cytometer gives signals particle by particle.

On to `CN1CCN(c2ccc(C(=O)Nc3cc(-c4cccc(NS(=O)(=O)c5ccccc5)c4)n[nH]3)cc2)CC1` [BPR1J-097, N1-(3-3-[(phenylsulfonyl)amino]phenyl-1H-5-pyrazolyl)-4-(4-methylpiperazino)benzamide], for which, in test [1], the “CR, animals” value is 1/8.
With `O=C(CCCCCCC(=O)Nc1ccccc1)NO` [SAHA, vorinostat], the “rate of apoptotic cells versus control” value in test [2] and in test [3] was “did not increase” in each case.
